Experiments:
HCT-116 = test: Cytotoxicity against HCT116 cells; format: functional; settings: Homo sapiens
CCRF-CEM [1] = test: cells; settings: Homo sapiens
UO-31 = test: Cytotoxicity against UO31 cells; format: functional; settings: Homo sapiens
ACHN = test: Cytotoxicity against ACHN cells; format: functional; settings: Homo sapiens
KM12 = test: Cytotoxicity against KM12 cells; format: functional; settings: Homo sapiens
SF-295 = test: Cytotoxicity against SF295 cells; format: functional; settings: Homo sapiens
CCRF-CEM [2] = test: Growth inhibition of human CCRF-CEM cells
Dihydrofolate reductase = Dihydrofolate reductase (Homo sapiens, UniProt P00374)
SF-539 = test: Cytotoxicity against SF539 cells; format: functional; settings: Homo sapiens
CCRF-CEM [3] = test: Effect on growth of human CCRF-CEM cells at 5000 nM in presence of 10 uM deoxycytidine, 5 uM thymidine and 10 uM hypoxanthine relative to control; format: functional
CCRF-CEM [4] = test: Effect on growth of human CCRF-CEM cells at 5000 nM in presence of 10 uM deoxycytidine, 10 uM hypoxanthine relative to control; format: functional
SF-268 = test: Cytotoxicity against SF268 cells; format: functional; settings: Homo sapiens
UACC-62 = test: Cytotoxicity against UACC62 cells; format: functional; settings: Homo sapiens
NCI-H460 = test: Cytotoxicity against NCI-H460 cells; format: functional; settings: Homo sapiens
HT-29 = test: Cytotoxicity against HT29 cells; format: functional; settings: Homo sapiens
SN12C = test: Cytotoxicity against SN12C cells; format: functional; settings: Homo sapiens
CCRF-CEM [5] = test: Effect on growth of human CCRF-CEM cells at 5000 nM in presence of 10 uM deoxycytidine relative to control; format: functional
PC-3 = test: Cytotoxicity against PC3 cells; format: functional; settings: Homo sapiens
SW-620 = test: Cytotoxicity against SW620 cells; format: functional; settings: Homo sapiens
CCRF-CEM [6] = test: cells; settings: Homo sapiens; remark: listed apart in the source
CAKI-1 = test: Cytotoxicity against CAKI1 cells; format: functional; settings: Homo sapiens
K562 = test: Cytotoxicity against K562 cells; format: functional; settings: Homo sapiens
MCF7 = test: Cytotoxicity against MCF7 cells; format: functional; settings: Homo sapiens
U-251 = test: Cytotoxicity against U251 cells; format: functional; settings: Homo sapiens
MOLT-4 = test: Cytotoxicity against MOLT4 cells; format: functional; settings: Homo sapiens
DU-145 = test: Cytotoxicity against DU145 cells; format: functional; settings: Homo sapiens
CCRF-CEM [7] = test: Cytotoxicity against CCRF-CEM cells; format: functional; settings: Homo sapiens
MDA-MB-435 = test: Cytotoxicity against MDA-MB-435 cells; format: functional; settings: Homo sapiens
LOX IMVI = test: Cytotoxicity against LOX IMVI cells; format: functional; settings: Homo sapiens
OVCAR-8 = test: Cytotoxicity against OVCAR8 cells; format: functional; settings: Homo sapiens
CCRF-CEM [8] = test: cells; settings: Homo sapiens; remark: listed apart in the source
SR = test: Cytotoxicity against SR cells; format: functional; settings: Homo sapiens
CCRF-CEM [9] = test: Effect on growth of human CCRF-CEM cells at 5000 nM in presence of 10 uM deoxycytidine, 5 uM thymidine relative to control; format: functional

CCc1c(Sc2ccc(C(=O)N[C@@H](CCC(=O)O)C(=O)O)cc2)[nH]c2nc(N)nc(N)c12
GI50 (HCT-116): 23 nM
EC50 (CCRF-CEM [1]): 6700 nM
GI50 (UO-31): 300 nM
GI50 (ACHN): 440 nM
GI50 (KM12): 56 nM
GI50 (SF-295): 660 nM
EC50 (CCRF-CEM [2]): 68 nM
IC50 (Dihydrofolate reductase): 66 nM
GI50 (SF-539): 240 nM
Activity (CCRF-CEM [3]): 74%
Activity (CCRF-CEM [4]): 12%
GI50 (SF-268): 430 nM
GI50 (UACC-62): 880 nM
GI50 (NCI-H460): 180 nM
GI50 (HT-29): 98 nM
GI50 (SN12C): 600 nM
Activity (CCRF-CEM [5]): 12%
GI50 (PC-3): 400 nM
GI50 (SW-620): 26 nM
EC50 (CCRF-CEM [6]): 200 nM
GI50 (CAKI-1): 170 nM
GI50 (K562): 12 nM
GI50 (MCF7): 170 nM
GI50 (U-251): 530 nM
GI50 (MOLT-4): 480 nM
GI50 (DU-145): 370 nM
GI50 (CCRF-CEM [7]): 17 nM
GI50 (MDA-MB-435): 660 nM
GI50 (LOX IMVI): 44 nM
GI50 (OVCAR-8): 740 nM
EC50 (CCRF-CEM [8]): 5700 nM
GI50 (SR): < 10 nM
Activity (CCRF-CEM [9]): 15%

Source: ChEMBL document CHEMBL1145401, “Design and synthesis of classical and nonclassical 6-arylthio-2,4-diamino-5-ethylpyrrolo[2,3-d]pyrimidines as antifolates” (J Med Chem, 2007)
